The target of data set [1] is KDR (Homo sapiens, UniProt P35968). Kind of data set: KDR inhibition of metabolites. The data set is classed as biochemical. The settings on record: metabolites of Compound A.
The nature of data set [2]: Water absorption of the hydrous hydrochloride form. The data set is classed as physicochemical. The note with it: 90% relative humidity and 25° C. The text has this: The hydrochloride salt is formed by preparing a solution of Compound A free base in ethanol and adding hydrochloric acid in slight molar excess with stirring and optional heat. Spontaneous salt formation occurred both with and without the application of heating and cooling. The hydrochloride salt is known to exist in at least one anhydrous form, which has been confirmed by single-crystal X-ray analysis, and at least one hydrous form. The anhydrous form of the hydrochloride salt is crystalline and decomposes near 230° C. when heated at a rate of 10° C./minute. The hydrous form of Compound A hydrochloride has been obtained by suspending the anhydrous hydrochloride material in water or in dilute aqueous solutions of hydrochloric acid. The hydrous material is crystalline, can freely absorb up to 4 molar equivalents of water at 90% relative humidity and 25° C., and appears to fully dehydrate by 150° C. and decompose near 170° C. when heated at a rate of 10° C./minute. Both the anhydrous and hydrous forms of Compound A hydrochloride have unique X-ray powder diffraction patterns, the major peaks of which are described below: […]

Data set [3] is described as follows: Exposure (AUC) in the rat corneal angiogenesis study. The data set is classed as in vivo. The note with it: female, CD, rat, in vivo. The method, then:
(§1) Tables 2 through 6 below describe the results obtained in the rat corneal in vivo model of angiogenesis for (1) reference compound (free base) 1, (2) Compound A (free base), and (3) the hydrochloride salt of Compound A. A VEGF-induced rat corneal angiogenesis assay was performed using the following procedure: • In Life Aspects: Female CD rats weighing approximately 250 grams were randomized into one of six treatment groups. On the day of surgery the rats were temporarily anesthetized using isoflurane. A vertical incision was made on the midline of the cornea and a pocket was created to separate the connective tissue layers of the stroma. The distance between the apex of the pocket and the limbus was approximately 1.8 mm. A presoaked nylon filter disk was inserted to the apex of the pocket (in the case of the control treatment group, the disks were soaked in a buffer containing bovine serum albumin; in the remaining treatment groups, the disks were soaked in buffer containing bovine serum albumin plus human VEGF to induce angiogenesis). The different treatment groups were then dosed daily with either vehicle (Ora Plus™, a commercially available vehicle) or a designated amount of test compound formulated in vehicle. • Study Termination and Analysis: After seven days, the rats were euthanized and the implanted corneas photographed using a Nikon SV-3 Ophthalmic Slit Lamp. Numerical data were generated from the digital images using the Metamorph image analysis system (Universal Imaging). Three endpoints were analyzed on each corneal image: (1) disk placement distance from the limbus, (2) number of vessels intersecting a perpendicular line at the midpoint of the disk placement distance, and (3) blood vessel area, as determined by thresholding and automated pixel counting. Only the number of blood vessels is shown in the tables as this endpoint correlated well with the blood vessel area. • Statistical Analysis: Results were analyzed with the StatView statistical program using one-way ANOVA, followed by Fisher's least significant difference test. Data are presented as mean±SE and P<0.05 was considered significant. AUC and ED50 values were calculated using methods well known in the art.

Data set [4] deals with VEGF-induced rat corneal angiogenesis. Put plainly: VEGF-induced rat corneal angiogenesis assay. The data set is classed as in vivo. The note with it: for Average # of Vessels: 7 days. The method, then:
as §1

Data set [5] in a line: Rat pharmacokinetic profile. The settings on record: in vivo. An excerpt:
(§2) Table 7 provides additional information about the pharmacokinetic profiles of reference compound 1 and Compound A. The data contained in this table was obtained using methods well known in the art.

Data set [6] relates to Rat Liver Microsome. Kind of data set: Rat liver microsome clearance. The data set is classed as in vitro ADME. The note with it: rat liver microsomes.
Text: as §2
On the technique in general: Liver microsomes are a subcellular fraction often used to study metabolism.

Data set [7] has as its system Human Liver Microsome. Put plainly: Human liver microsome clearance. The data set is classed as in vitro ADME. The note with it: human liver microsomes.
Text: as §2

The subject of data set [8] is HUVEC. Kind of data set: VEGF induced proliferation, HUVEC cell-based assay. The note with it: Homo sapiens.

Molecules are shown by their SMILES. pIC50: −log10 of the molar value. Counter-ions that a name gives are not always drawn. Like-named read-outs stand apart in the source and are kept apart here.

Here are results for 6 compounds from patent publication US7795254B2, “Benzomorpholine derivatives and methods of use” (Amgen Inc., priority 2007, dated 2010).

As a reminder, the pIC50 is the negative decadic logarithm of the IC50, by convention in mol/L. As a reminder, the AUC is the area under the concentration-time curve, a measure of exposure. In general, clearance refers to the volume of plasma or blood freed of the substance per unit of time. Low values mean inefficient removal, high ones efficient removal.

Chain of KDR (P35968 20-1356, species assumed): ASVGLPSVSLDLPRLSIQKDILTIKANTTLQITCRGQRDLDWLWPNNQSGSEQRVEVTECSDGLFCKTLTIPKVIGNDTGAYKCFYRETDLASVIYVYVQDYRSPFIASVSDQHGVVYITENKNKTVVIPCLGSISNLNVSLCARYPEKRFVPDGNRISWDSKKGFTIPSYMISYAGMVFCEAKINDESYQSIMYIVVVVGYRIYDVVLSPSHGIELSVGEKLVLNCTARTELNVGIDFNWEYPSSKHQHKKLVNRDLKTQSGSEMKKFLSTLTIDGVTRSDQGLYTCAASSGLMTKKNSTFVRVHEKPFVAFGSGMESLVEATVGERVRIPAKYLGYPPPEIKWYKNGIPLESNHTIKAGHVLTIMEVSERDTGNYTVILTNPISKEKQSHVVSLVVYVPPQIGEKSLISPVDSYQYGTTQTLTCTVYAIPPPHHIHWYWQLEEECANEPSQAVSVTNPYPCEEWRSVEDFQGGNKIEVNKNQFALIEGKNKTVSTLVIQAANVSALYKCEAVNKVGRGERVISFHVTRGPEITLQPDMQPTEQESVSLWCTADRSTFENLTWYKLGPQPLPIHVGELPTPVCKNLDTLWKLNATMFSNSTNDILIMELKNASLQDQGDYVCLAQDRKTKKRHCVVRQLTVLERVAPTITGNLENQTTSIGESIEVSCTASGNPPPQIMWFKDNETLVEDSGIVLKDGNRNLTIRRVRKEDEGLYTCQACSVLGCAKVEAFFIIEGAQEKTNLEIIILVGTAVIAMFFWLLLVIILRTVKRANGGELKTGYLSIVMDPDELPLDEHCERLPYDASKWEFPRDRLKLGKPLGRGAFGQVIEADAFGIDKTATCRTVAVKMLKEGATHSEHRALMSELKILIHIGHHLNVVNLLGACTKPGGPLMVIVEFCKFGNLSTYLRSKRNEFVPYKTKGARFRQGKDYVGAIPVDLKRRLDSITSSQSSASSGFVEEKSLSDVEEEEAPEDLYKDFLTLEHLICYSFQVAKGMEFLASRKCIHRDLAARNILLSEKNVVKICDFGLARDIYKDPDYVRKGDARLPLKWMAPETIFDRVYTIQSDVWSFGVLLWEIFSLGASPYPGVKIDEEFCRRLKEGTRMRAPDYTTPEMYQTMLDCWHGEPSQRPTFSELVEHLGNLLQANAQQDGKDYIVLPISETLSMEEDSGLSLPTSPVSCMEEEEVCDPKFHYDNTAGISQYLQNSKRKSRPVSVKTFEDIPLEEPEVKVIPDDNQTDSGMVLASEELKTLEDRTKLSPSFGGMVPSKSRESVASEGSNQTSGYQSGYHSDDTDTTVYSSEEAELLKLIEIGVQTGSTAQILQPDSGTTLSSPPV

As for `COc1cc2nccc(Oc3ccc4c(c3)OCCN4C(=O)Nc3cc(CO)on3)c2cc1OC` [7-(6,7-dimethoxyquinolin-4-yloxy)-N-(5-(hydroxymethyl)isoxazol-3-yl)-2,3-dihydrobenzo[b][1,4]oxazine-4-carboxamide hydrochloride], the pIC50 in data set [1] is 8.98.
The same measure, in the same setting: the result for `COc1cc2nccc(Oc3ccc4c(c3)OCCN4C(=O)Nc3cc(C)on3)c2cc1O` [7-(6-hydroxy-7-methoxyquinolin-4-yloxy)-N-(5-methylisoxazol-3-yl)-2,3-dihydrobenzo[b][1,4]oxazine-4-carboxamide] reads 8.77; that for `COc1cc2c(Oc3ccc4c(c3)OCCN4C(=O)Nc3cc(C)on3)ccnc2cc1O` [7-(7-hydroxy-6-methoxyquinolin-4-yloxy)-N-(5-methylisoxazol-3-yl)-2,3-dihydrobenzo[b][1,4]oxazine-4-carboxamide], 6.11.
For `COc1cc2nccc(Oc3ccc4c(c3)OCCN4C(=O)Nc3cc(C)on3)c2cc1OC` [Compound A (HCl Salt)], the water absorbed result in data set [2] is “up to 4 molar equivalents of water”. Further, the area under the curve (AUC) amounted to 95.8 ng·h/mL in data set [3] (0.01 mg/kg, Table 5, HCl salt Run #2, 0.01 mg/kg daily); 162 ng·h/mL in data set [3] (0.03 mg/kg, Table 4, HCl salt Run # 1, 0.03 mg/kg daily); 272 ng·h/mL in data set [3] (0.03 mg/kg, Table 5, HCl salt Run #2, 0.03 mg/kg daily); 460 ng·h/mL in data set [3] (0.1 mg/kg, Table 4, HCl salt Run # 1, 0.1 mg/kg daily); 954 ng·h/mL in data set [3] (0.1 mg/kg, Table 5, HCl salt Run #2, 0.1 mg/kg daily); 1190 ng·h/mL in data set [3] (0.3 mg/kg, Table 4, HCl salt Run # 1, 0.3 mg/kg daily). The AUC in data set [3] (0.3 mg/kg, Table 5, HCl salt Run #2, 0.3 mg/kg daily) is 3900 ng·h/mL; in data set [3] (1 mg/kg, Table 4, HCl salt Run # 1, 1.0 mg/kg daily) it was 3640 ng·h/mL; in data set [3] (oral, 0.01 mg/kg, Table 6, HCl salt Run #3, 0.01 mg/kg daily), 21.8 ng·h/mL; in data set [3] (oral, 0.03 mg/kg, Table 6, HCl salt Run #3, 0.03 mg/kg daily), 80.2 ng·h/mL; in data set [3] (oral, 0.1 mg/kg, Table 6, HCl salt Run #3, 0.1 mg/kg daily), 322 ng·h/mL; in data set [3] (oral, 0.3 mg/kg, Table 6, HCl salt Run #3, 0.3 mg/kg daily), 677 ng·h/mL. Besides, the ED50 turned out to be 0.04 mg/kg in data set [4] (Rattus norvegicus, Table 4, HCl salt Run # 1, number of vessels, read-out: ED50) and 0.15 mg/kg in data set [4] (Rattus norvegicus, Table 5, HCl salt Run #2, number of vessels, read-out: ED50). Further, the “Average # of Vessels” value came out at 15.3 in data set [4] (Table 4, HCl salt Run # 1, VEGF disc + 0.03 mg/kg daily); 9.3 in data set [4] (Table 4, HCl salt Run # 1, VEGF disc + 0.1 mg/kg daily); 4.3 in data set [4] (Table 4, HCl salt Run # 1, VEGF disc + 0.3 mg/kg daily); 0.4 in data set [4] (Table 4, HCl salt Run # 1, VEGF disc + 1.0 mg/kg daily); 28.9 in data set [4] (Table 5, HCl salt Run #2, VEGF disc + 0.01 mg/kg daily); 25.5 in data set [4] (Table 5, HCl salt Run #2, VEGF disc + 0.03 mg/kg daily). For the same compound, the “Average # of Vessels” value in data set [4] (Table 5, HCl salt Run #2, VEGF disc + 0.1 mg/kg daily) turned out to be 18.0; in data set [4] (Table 5, HCl salt Run #2, VEGF disc + 0.3 mg/kg daily) it was 7.3; in data set [4] (Table 6, HCl salt Run #3, VEGF disc + 0.01 mg/kg daily), 28.4; in data set [4] (Table 6, HCl salt Run #3, VEGF disc + 0.03 mg/kg daily), 32.0; in data set [4] (Table 6, HCl salt Run #3, VEGF disc + 0.1 mg/kg daily) it was 15.4; in data set [4] (Table 6, HCl salt Run #3, VEGF disc + 0.3 mg/kg daily), 4.8.
Consider `COc1cc2c(Oc3ccc4c(c3)OCCN4C(=O)Nc3cc(C)on3)cc[n+]([O-])c2cc1OC` [Compound A N-oxide], for which the pIC50 in data set [1] was 5.30.
Consider `COc1cc2nccc(Oc3ccc4c(c3)OCCN4C(=O)Nc3ccon3)c2cc1OC` [Reference Compound 1, reference compound], for which the clearance in data set [5] (intravenous) was 13.3 mL/min/kg. The Vd in data set [5] (intravenous, read-out: Rat Volume of Distribution) is 1 L/kg. Moreover, the half-life in data set [5] (iv, I.V., read-out: Rat I.V. T1/2 (converted)) is 4.73 h; in data set [5] (po, 2 mpk, P.O., read-out: Rat P.O. T1/2 (converted)), 2.4 h. Also, the bioavailability in data set [5] (po, 2 mg/kg, P.O., 2 mpk, read-out: Rat P.O. (2 mpk) % F) came out at 67%. The AUC(0-inf) in data set [5] (po, 2 mg/kg, P.O., 2 mpk, read-out: Rat P.O. (2 mpk) AUC0-inf) came to 1710 ng·h/mL. Moreover, the AUC(0-t) in data set [5] (po, 2 mg/kg, P.O., 2 mpk, read-out: Rat P.O. (2 mpk) AUC0-t) worked out at 1700 ng·h/mL. For the same compound, the AUC amounted to 22.5 ng·h/mL in data set [3] (oral, 0.03 mg/kg, Table 2, free base, 0.03 mg/kg daily); 68.5 ng·h/mL in data set [3] (oral, 0.1 mg/kg, Table 2, free base, 0.1 mg/kg daily); 205 ng·h/mL in data set [3] (oral, 0.3 mg/kg, Table 2, free base, 0.3 mg/kg daily). Further, in data set [6], the “Rat Liver Microsome” value was 65 µL/min/mg. The “Human Liver Microsome” value in data set [7] came out at 29 µL/min/mg. Also, in data set [8], the pIC50 is 8.15. The ED50 was more than 0.3 mg/kg in data set [4] (Rattus norvegicus, Table 2, free base, number of vessels, read-out: ED50); more than 0.3 mpk in data set [4] (free base, review of Tables 2 and 3). Moreover, the “Average # of Vessels” value is listed as 22.0 in data set [4] (Table 2, free base, VEGF disc + 0.01 mg/kg daily); 25.4 in data set [4] (Table 2, free base, VEGF disc + 0.03 mg/kg daily); 19.3 in data set [4] (Table 2, free base, VEGF disc + 0.1 mg/kg daily); 15.9 in data set [4] (Table 2, free base, VEGF disc + 0.3 mg/kg daily).
